Each structure is given as a SMILES string.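 Protocol summary: plate cells (96-well), add compound at 5 concentrations, incubate 48 h, interpolate endpoints linearly. TGI is the concentration that stops growth completely.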

Test systems include MDA-N; 786-0 renal; M14 melanoma; MDA-MB-435; SNB-19 CNS; BT-549 breast; SR leukemia; MDA-MB-231 breast; DU-145 prostate; KM12 colon; SK-MEL-2 melanoma; SF-268 CNS.
Test in all cases: NCI-60 cell line screen, 48 h

Turning to `COC(=O)CCC12CCC(O1)c1ccccc12` (stereo not drawn), the TGI in the assay with MDA-N, with 786-0 renal, with M14 melanoma, in the assay with MDA-MB-435, in the assay with SNB-19 CNS and in the assay with BT-549 breast was greater than 100 µM in each case. Further, the TGI in the assay on SR leukemia, in the assay with MDA-MB-231 breast, with DU-145 prostate and with KM12 colon was greater than 100 µM each time.
Turning to `COC(=O)c1c(C)cccc1CC1Cc2c(C)cccc2C1=O` (stereo not drawn), the TGI with SK-MEL-2 melanoma is 37.9 µM; in the assay on SF-268 CNS, greater than 100 µM; in the assay on MDA-N, greater than 100 µM; in the assay on 786-0 renal it was greater than 100 µM; in the assay with M14 melanoma it was greater than 100 µM; with MDA-MB-435 it was 65.1 µM. The TGI was greater than 100 µM with SNB-19 CNS; greater than 100 µM in the assay with BT-549 breast; greater than 100 µM with MDA-MB-231 breast; greater than 100 µM with DU-145 prostate; 73.2 µM in the assay with KM12 colon.
Consider `N/C(=N/n1c(=S)[nH]c2ccccc2c1=O)Nn1c(=S)[nH]c2ccccc2c1=O`, for which the TGI is greater than 100 µM in the assay on SK-MEL-2 melanoma; 56.8 µM in the assay on SF-268 CNS; 85.4 µM in the assay with MDA-N; 34.2 µM in the assay on 786-0 renal; 23.8 µM with M14 melanoma; greater than 100 µM in the assay with MDA-MB-435. The TGI in the assay with SNB-19 CNS is greater than 100 µM; with BT-549 breast, 55.4 µM; in the assay with SR leukemia, 52 µM; with MDA-MB-231 breast it was greater than 100 µM; in the assay with DU-145 prostate it was greater than 100 µM; with KM12 colon, greater than 100 µM.
In the case of `OC1COC(n2c3ccc(Br)cc3c3ccc4c5ccccc5[nH]c4c32)C(O)C1O` (stereo not drawn), the TGI with SK-MEL-2 melanoma worked out at 19.8 µM; with SF-268 CNS, 19.9 µM; in the assay on MDA-N, 15.2 µM; in the assay with 786-0 renal it was 17.8 µM; in the assay with M14 melanoma, 15.3 µM; with MDA-MB-435, 16.1 µM. Moreover, the TGI stood at 28.2 µM in the assay with SNB-19 CNS; 26.3 µM in the assay with BT-549 breast; 13.3 µM in the assay with SR leukemia; 7.47 µM with MDA-MB-231 breast; 12.6 µM in the assay with DU-145 prostate; 3.53 µM in the assay with KM12 colon.
For `O=c1oc2ccccc2n1CCN1CCCCC1`, the TGI with SK-MEL-2 melanoma, with SF-268 CNS, in the assay on MDA-N, in the assay with 786-0 renal, in the assay on M14 melanoma and in the assay on MDA-MB-435 was greater than 100 µM throughout. The TGI in the assay with SNB-19 CNS, with BT-549 breast, in the assay with SR leukemia, with MDA-MB-231 breast, in the assay with DU-145 prostate and in the assay on KM12 colon was greater than 100 µM throughout.
Regarding `Cc1nc2c(sc3nc4ccccc4n32)c(=O)[nH]1`, the TGI in the assay on SK-MEL-2 melanoma, in the assay with SF-268 CNS, in the assay with MDA-N, with 786-0 renal, in the assay on M14 melanoma and with MDA-MB-435 was greater than 100 µM in each case. For the same compound, the TGI in the assay with SNB-19 CNS, with BT-549 breast, in the assay on SR leukemia, in the assay with MDA-MB-231 breast, in the assay with DU-145 prostate and in the assay with KM12 colon was greater than 100 µM each time.
Turning to `Cc1ccc(Nc2cc(=O)[nH]c(=S)[nH]2)cc1`, the TGI in the assay with SK-MEL-2 melanoma, in the assay on SF-268 CNS, with MDA-N, in the assay on 786-0 renal, in the assay with M14 melanoma and with MDA-MB-435 was greater than 100 µM throughout. Further, the TGI with SNB-19 CNS, in the assay with BT-549 breast, in the assay with SR leukemia, with MDA-MB-231 breast, with DU-145 prostate and in the assay with KM12 colon was greater than 100 µM in each case.
For the compound `COc1ccc2c3c1OC1c4[nH]c5ccccc5c4CC4(O)C(C2)N(C)CCC314` (stereo not drawn), the TGI in the assay on SK-MEL-2 melanoma was 39.5 µM; in the assay with SF-268 CNS, greater than 100 µM; in the assay with MDA-N, 32.7 µM; in the assay with 786-0 renal, 34.3 µM; in the assay with M14 melanoma, 32.3 µM; with MDA-MB-435, 35.7 µM. Also, the TGI was greater than 100 µM with SNB-19 CNS; greater than 100 µM in the assay with BT-549 breast; 37 µM in the assay on SR leukemia; 77.4 µM with MDA-MB-231 breast; greater than 100 µM with DU-145 prostate; greater than 100 µM in the assay on KM12 colon.
Turning to `CN(C)Cc1cc(N=Nc2ccccc2)cc(CN(C)C)c1O`, the TGI in the assay on SK-MEL-2 melanoma, in the assay on SF-268 CNS, in the assay with MDA-N, in the assay with 786-0 renal, in the assay with M14 melanoma and in the assay on MDA-MB-435 was greater than 100 µM each time. Besides, the TGI in the assay with SNB-19 CNS, in the assay on BT-549 breast, with SR leukemia, in the assay with MDA-MB-231 breast, in the assay on DU-145 prostate and in the assay with KM12 colon was greater than 100 µM throughout.
In the case of `C[Si](C)(OCCS(=O)(=O)O)C1S(=O)(=O)OCCOS1(=O)=O`, the TGI in the assay with SF-268 CNS, in the assay with MDA-N, with 786-0 renal, with M14 melanoma, in the assay on MDA-MB-435 and in the assay with SNB-19 CNS was greater than 100 µM each time. Besides, the TGI with BT-549 breast, in the assay with SR leukemia, with MDA-MB-231 breast, in the assay on DU-145 prostate and in the assay on KM12 colon was greater than 100 µM each time.
In the case of `CNC(=O)c1[nH]cnc1/N=N/N(C)N`, the TGI in the assay on SK-MEL-2 melanoma, in the assay with SF-268 CNS, in the assay with MDA-N, with 786-0 renal, with M14 melanoma and in the assay on MDA-MB-435 was greater than 100 µM in each case. The TGI with BT-549 breast, in the assay on MDA-MB-231 breast, in the assay with DU-145 prostate and in the assay with KM12 colon was greater than 100 µM in each case.
For the compound `Cn1c2ccccc2c(=NNc2ccc(C(=O)O)cc2)c2ccccc21`, the TGI was 40.7 µM in the assay with SK-MEL-2 melanoma; 48 µM in the assay with SF-268 CNS; 33.7 µM in the assay with MDA-N; 84.4 µM with 786-0 renal; 31.8 µM in the assay on M14 melanoma; 34.3 µM with MDA-MB-435. In addition, the TGI was greater than 100 µM with SNB-19 CNS; 74.9 µM in the assay with BT-549 breast; 42.7 µM in the assay on SR leukemia; 50.1 µM with MDA-MB-231 breast; 58 µM in the assay with DU-145 prostate; 50.3 µM in the assay on KM12 colon.
